From patent US20250042882A1, “CERTAIN 3-AZABICYCLO[3.1.0]HEXANES AS GLP-1 RECEPTOR MODULATORS” (AstraZeneca AB, priority 2021, published 2025) come the findings set out here.

Test [1] has as its target T1, human phosphodiesterase-3A (Homo sapiens, UniProt Q14432).
T1 construct: host or cells: Sf9 (Spodoptera frugiperda)
Put plainly: PDE3 Assay. The format is biochemical. The following applies: human recombinant enzyme expressed in Sf9 cells; formation of 5′AMP from cAMP, SPA. How it is done:
Evaluation of the effects of compounds on the activity of the human phosphodiesterase-3A is quantified by measuring the formation of 5′AMP from cAMP using a human recombinant enzyme expressed in a clonal isolate of Spodoptera frugiperda cells (Sf9) cells.
The test compound, reference compound or water (control) are added to a buffer containing 40 mM tris(hydroxymethyl)aminomethane (Tris)/HCl (pH 7.4) and 8 mM MgCl2, 450 nMcAMP and 0.25 μCi [^3H]cAMP.
Thereafter, the reaction is initiated by addition of the enzyme (about 1 U) and the mixture is incubated for 20 min at 22° C.
For basal control measurements, the enzyme is omitted from the reaction mixture.
Following incubation SPA beads are added. After 30 min at 22° C. under shaking, the amount of [^3H]5′AMP is quantified with a scintillation counter (Topcount, Packard).
The results are expressed as a percent inhibition of the control enzyme activity. The standard inhibitory reference compound is milrinone (CAS number 78415-72-2), which is tested in each experiment at several concentrations to obtain an inhibition curve from which its IC50 value is calculated.

The target in the next test is T2, human GLP-1R receptor (Homo sapiens, UniProt P43220, L260F).
T2 construct: expressed in transfected cells; host or cells: CHO-K1 (ATCC CCL-61)
T2 sequence (P43220 24-463 L260F): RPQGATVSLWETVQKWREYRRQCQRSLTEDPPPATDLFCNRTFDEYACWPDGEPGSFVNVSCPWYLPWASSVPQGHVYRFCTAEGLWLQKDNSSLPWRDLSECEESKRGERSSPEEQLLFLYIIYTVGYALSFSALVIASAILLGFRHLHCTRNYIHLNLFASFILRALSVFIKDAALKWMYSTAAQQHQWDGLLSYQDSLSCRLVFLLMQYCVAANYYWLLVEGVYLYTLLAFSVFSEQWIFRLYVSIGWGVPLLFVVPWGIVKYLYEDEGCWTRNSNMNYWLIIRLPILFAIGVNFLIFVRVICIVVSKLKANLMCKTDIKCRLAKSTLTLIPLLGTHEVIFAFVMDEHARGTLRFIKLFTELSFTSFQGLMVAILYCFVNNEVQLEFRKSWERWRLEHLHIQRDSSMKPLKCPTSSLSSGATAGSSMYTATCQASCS
Put plainly: CHOK1 GLP-1R cAMP Assay. The test is classed as cell-based. The following applies: CHO-K1 cell line stably expressing human GLP-1R (Leu260Phe variant); HTRF cAMP; agonist activity. As for the experimental part:
A cell line stably expressing the human GLP-1R receptor (NM_002062.5, including the naturally-occurring variant Leu260Phe) in a CHO-K1 (ATCC® CCL-61™) was used for assay.
GLP-1 receptor mediated agonist activity was determined in a cell-based assay measuring cyclic adenosine monophosphate (cAMP) levels in cells using Homogeneous Time-Resolved Fluorescence (HTRF) cAMP detection kit (CisBio catalog #62AM4PEC, cAMP Gs Dynamic range kit). The cAMP detection method is based on a competitive immunoassay, in which cAMP produced by the cells and cAMP labeled with the dye d2 compete for binding to a Europium-Cryptate-labeled anti-cAMP antibody. The specific HTRF signal is inversely proportional to the concentration of cAMP.
Compounds were added to individual well in 384 well-assay plates (Greiner #784076) using an Echo (LabCyte) dispenser from 10 mM stocks. Varying concentration of compounds were added to wells, and DMSO was used to normalize each well to a volume of 100 nL. A dose response curve of GLP-1(7-36)NH2 (Bachem H-6795) was included in each run. 5 μL of cAMP concentration response standards are applied in specified wells in the assay plates. Cryo-preserved cells are thawed and resuspended in assay buffer pre-heated to 37° C. (20 mM HEPES pH 7.4, 1× Hank's Balanced Salt Solution (HBSS, Life Technologies #14065) supplemented with 0.1% (w/v) bovine serum albumin (Sigma, A-7030). Cells were centrifuged at 250*g for 5 min at rt, and resuspended in room tempered assay buffer to a final density of 0.16*10^6 cell/mL, to deliver 800 cells/well. 5 μL of assay buffer with 1 mM 3-isobutyl-1-methylxanthin (IBMX; Sigma cat I-7018) was dispensed per well in assay plates using a multidrop combi (Thermo Scientific) subsequently 5 μL of cell suspension was distributed to relevant wells in the assay using a multidrop dispenser. Assay plates were incubated 20 min at rt.
Detection reagents, Europium-Cryptate-labeled anti-cAMP antibody and cAMP labeled with the dye d2, are diluted in lysis buffer, provided by the manufacturer. 5 μL of each detection reagent is supplemented to each assay well using a multidrop dispenser. Assay plates are incubated in the dark for at least one h. The HTRF signal is measured using the HTRF module (excitation: 337 nm, emission A: 665 nm and emission B: 620 nm) in Pherastar FSX (BMG Labtech).
Raw data were converted to pM cAMP using the cAMP standard curve included in each run.
Converted data were further analyzed in Genedata Screener (Genedata) and EC50 determinations were made from agonist dose-response curves analyzed with a curve fitting program using a 4-parameter logistic dose response equation (Equation y=A+((B−A)/1+((C/x)^D))) where A is no stimulation, B is full stimulation, C is the EC50 and D is the Hill slope). The percent effect was determined relative to a saturating concentration of a full GLP-1R agonist (GLP-1(7-36)NH2 has 100% effect in this assay setup).

A further test deals with T3, GLP-1R (Homo sapiens, UniProt P43220).
T3 construct: host or cells: EndoC-βH1 human pancreatic beta cell line
T3 sequence (P43220 24-463): as the sequence (P43220 24-463 L260F) above, with F237L counted along it
Put plainly: EndoC cAMP Accumulation Assay. The test is classed as cell-based. The following applies: EndoC-βH1 human pancreatic β cell line; HTRF cAMP accumulation. From the text:
EndoC cAMP Accumulation Assay
A HTRF cAMP assay (cAMP Gs dynamic kit; CisoBio Cat #62AM4PEJ) was used to identify agonists of GLP-1R in a pancreatic insulinoma cell line (EndoC-⊕H1). […] EndoC-PHlcells have detectable GLP-1R messenger ribonucleic acid (mRNA) as detected by quantitative polymerase chain reaction (qPCR). […] The EndoC-PH1 cell line is a valid model of human beta cells and applicable for screenings to identify novel drug target candidates (Mol. Metab., 2018, 8, 144-157). CisBio HTRF cAMP kits are based on a competitive immunoassay using cryptate-labelled anti-cAMP antibody and d2-labeled cAMP. The detection kit is intended for the direct quantitative determination of cAMP. The specific signal (i.e. energy transfer) is inversely proportional to the concentration of cAMP in the standard or sample. Test compounds (10 mM in DMSO) were diluted into assay buffer (HBSS (Sigma #H8264) supplemented with 25 mM HEPES (Gibco #15630, pH 7.4), 0.1% BSA (Sigma #A3059) and 0.5 mM IBMX (Sigma #I7018) included fresh on the day of the assay) into 96 well U-bottom plates (Greiner #650201). Diluted compounds were transferred to ECHO source polypropylene plates (Labcyte #P-05525) and dose response curves were dispensed acoustically using ECHO 550 into black shallow-well u-bottom 384-well HTRF Assay Plates (Corning 4514).
Cryovials of EndoC-H1 (supplied at 1×10e^7 cells/vial) were used directly for screening. The cryovials and were removed from N2(l) and thawed rapidly in a 37° C. water bath. The cells were resuspended in assay buffer and centrifuged at 300 g for 5 min. Cells were resuspended in assay buffer at the appropriate concentration, typically at 12e5 cells per mL (3000 cells per well, dependent on cell batch) and 2.5 μL diluted cells were added to all wells of destination plate by Multidrop combi reagent dispenser (Thermofisher). The plates were incubated at rt for 30 min. The assay was stopped by adding 2.5 μL anti-cAMP cryptate solution to all wells and 2.5 μL cAMP-d2 solution (both diluted 1:20 in lysis buffer) to columns 1-22 by Combi drop. A volume of 2.5 μL cAMP-d2 solution was added to wells E23 to P24 and 2.5 μL lysis buffer added to wells A23 to D24 by multichannel pipette. The plates were incubated at rt for 1 h and read on an Envision plate reader using excitation wavelength of 320 mn and emission of 590 nm and 660 nm.
Raw data from Envision is converted to % DeltaF according to the manufacturer's instructions. Dose response curves are analysed via 4-Parameter Logistical Analysis and assay plate Z′ values obtained. Samples are graphed as percentage (%) activation plots compared to GIP (1-42, Bachem H-5645) with assay window defined by negative control as basal cell cAMP levels and positive control are defined by maximum GIP (82.5 nM) signal. GLP-1 (7-36 amide, Bachem H-6795) dose response curve was included on all plates.
For orientation: Time-resolved FRET reads energy transfer from a long-lived donor to a nearby acceptor.

T1 sequence (Q14432 whole entry): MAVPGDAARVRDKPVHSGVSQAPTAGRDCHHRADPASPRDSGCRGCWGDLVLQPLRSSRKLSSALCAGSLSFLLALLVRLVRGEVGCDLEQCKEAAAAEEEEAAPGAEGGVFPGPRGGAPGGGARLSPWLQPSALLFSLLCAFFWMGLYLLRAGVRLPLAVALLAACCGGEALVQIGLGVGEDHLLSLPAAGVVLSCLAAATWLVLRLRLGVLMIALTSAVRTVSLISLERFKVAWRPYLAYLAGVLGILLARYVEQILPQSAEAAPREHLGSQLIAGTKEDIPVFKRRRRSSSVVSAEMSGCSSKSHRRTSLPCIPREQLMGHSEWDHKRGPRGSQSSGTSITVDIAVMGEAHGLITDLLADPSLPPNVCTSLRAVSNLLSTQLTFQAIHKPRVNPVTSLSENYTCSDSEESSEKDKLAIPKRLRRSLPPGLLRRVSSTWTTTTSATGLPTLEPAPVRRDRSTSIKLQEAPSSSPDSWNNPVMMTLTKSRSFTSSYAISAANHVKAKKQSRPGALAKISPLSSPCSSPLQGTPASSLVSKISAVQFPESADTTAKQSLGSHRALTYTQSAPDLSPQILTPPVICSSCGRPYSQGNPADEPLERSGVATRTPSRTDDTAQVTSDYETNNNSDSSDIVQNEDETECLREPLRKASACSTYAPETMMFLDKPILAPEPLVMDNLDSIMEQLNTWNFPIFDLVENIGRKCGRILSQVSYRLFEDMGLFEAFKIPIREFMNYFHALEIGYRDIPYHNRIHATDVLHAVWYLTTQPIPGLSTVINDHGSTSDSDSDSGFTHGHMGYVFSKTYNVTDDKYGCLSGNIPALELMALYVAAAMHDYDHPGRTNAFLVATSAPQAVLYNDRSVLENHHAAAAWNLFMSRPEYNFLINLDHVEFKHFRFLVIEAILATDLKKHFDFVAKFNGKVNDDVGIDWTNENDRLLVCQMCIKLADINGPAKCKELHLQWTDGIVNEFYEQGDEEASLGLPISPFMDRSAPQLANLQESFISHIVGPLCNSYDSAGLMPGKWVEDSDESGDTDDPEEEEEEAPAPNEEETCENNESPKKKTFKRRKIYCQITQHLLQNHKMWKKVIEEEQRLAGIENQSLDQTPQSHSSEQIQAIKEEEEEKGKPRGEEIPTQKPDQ

Consider `N#Cc1ccc(COc2cccc(C3CCN(Cc4nc5ccc(C(=O)O)cc5n4C[C@@H]4CCO4)CC3)n2)c(F)c1` [Ref Comp B, reference compound], for which the IC50 in test [1] amounted to 11000 nM.
On to `COc1cc(C(=O)O)cc2c1nc(CN1C[C@@H]3[C@H](C1)[C@H]3c1cccc3c1O[C@](C)(c1ccc(Cl)cc1F)O3)n2CC1CCO1` (relative stereo) [Example 2, 2-(((1R,5S,6R)-6-((R*)-2-(4-Chloro-2-fluorophenyl)-2-methylbenzo[d][1,3]dioxol-4-yl)-3-azabicyclo[3.1.0]hexan-3-yl)methyl)-4-methoxy-1-(((S)-oxetan-2-yl)methyl)-1H-benzo[d]imidazole-6-carboxylic acid], for which the EC50 came to 14 nM at human GLP-1R receptor and 15 nM at GLP-1R. Besides, in test [1], the IC50 is more than 10000 nM.
Taken in the same sequence, the figures for “2-(((1R,5S6R)-6-((R*)-2-(5-Chloropyridin-2-yl)-5-fluoro-2-methylbenzo[d][1,3]dioxol-4-yl)-3-azabicyclo[3.1.0]hexan-3-yl)methyl)-4-fluoro-1-(((S)-oxetan-2-yl)methyl)-1H-benzo[d]imidazole-6-carboxylic acid [Example 10a]” were 19 nM, 13 nM and more than 100000 nM.
In the case of `C[C@@]1(c2ccc(C#N)cc2F)Oc2cccc([C@H]3[C@@H]4CN(Cc5nc6c(F)cc(C(=O)O)cc6n5C[C@@H]5CCO5)C[C@@H]43)c2O1` (relative stereo) [Example 11, 2-((1R,5S,6R)-6-((R*)-2-(4-Cyano-2-fluorophenyl)-2-methylbenzo[d][1,3]dioxol-4-yl)-3-azabicyclo[3.1.0]hexan-3-yl)methyl)-4-fluoro-1-(((S)-oxetan-2-yl)methyl)-1H-benzo[d]imidazole-6-carboxylic acid], the EC50 on human GLP-1R receptor worked out at 61 nM; at GLP-1R, 57 nM.
Regarding `CC1(c2ccc(Cl)cc2F)Oc2cccc([C@H]3[C@@H]4CN(Cc5nc6ccc(C(=O)O)cc6n5CC5CCO5)C[C@@H]43)c2O1` (stereo partly drawn) [Example 1, 2-(((1R,5S,6R)-6-(2-(4-Chloro-2-fluorophenyl)-2-methylbenzo[d][1,3]dioxol-4-yl)-3-azabicyclo[3.1.0]hexan-3-yl)methyl)-1-(((S)-oxetan-2-yl)methyl)-1H-benzo[d]imidazole-6-carboxylic acid], the EC50 on human GLP-1R receptor was 180 nM; at GLP-1R, 69 nM.
Taken in the same sequence, the figures for `COc1cc(C(=O)O)cc2c1nc(CN1C[C@@H]3[C@H](C1)[C@H]3c1cccc3c1O[C@](C)(c1ccc(Cl)cn1)O3)n2CC1CCO1` (single isomer, unassigned) [Example 4b, 2-(((1R,5S6R)-6-((R*)-2-(5-Chloropyridin-2-yl)-2-methylbenzo[d][1,3]dioxol-4-yl)-3-azabicyclo[3.1.0]hexan-3-yl)methyl)-4-methoxy-1-(((S)-oxetan-2-yl)methyl)-1H-benzo[d]imidazole-6-carboxylic acid] were 61 nM and 14 nM.
On to `CCn1cncc1Cn1c(CN2C[C@@H]3[C@H](C2)[C@H]3c2cccc3c2O[C@](C)(c2ccc(Cl)cn2)O3)nc2c(Cl)cc(C(=O)O)cc21` (single isomer, unassigned) [Example 12, 4-Chloro-2-(((1R,5S,6s)-6-((R*)-2-(5-chloropyridin-2-yl)-2-methylbenzo[d][1,3]dioxol-4-yl)-3-azabicyclo[3.1.0]hexan-3-yl)methyl)-1-((1-ethyl-1H-imidazol-5-yl)methyl)-1H-benzo[d]imidazole-6-carboxylic acid], for which the EC50 at human GLP-1R receptor turned out to be 30 nM; at GLP-1R, 7.5 nM.
The corresponding values for `CCn1cncc1Cn1c(CN2C[C@@H]3[C@H](C2)[C@H]3c2cccc3c2O[C@](C)(c2ccc(Cl)cc2F)O3)nc2c(F)cc(C(=O)O)cc21` (relative stereo) [Example 15, 2-((1R,5S,6s)-6-((R*)-2-(4-Chloro-2-fluorophenyl)-2-methylbenzo[d][1,3]dioxol-4-yl)-3-azabicyclo[3.1.0]hexan-3-yl)methyl)-1-((1-ethyl-1H-imidazol-5-yl)methyl)-4-fluoro-1H-benzo[d]imidazole-6-carboxylic acid] are 8.6 nM and 3 nM.

The IC50 is the concentration needed to halve the response being measured. What is called EC50 is the concentration that produces a half-maximal response. A high value points to a need for much substance.
